Assay results reported in the supplement of paper PMC9663587.

Key:
Paclitaxel = compound: CC(=O)O[C@H]1C(=O)[C@@]2(C)[C@H]([C@H](OC(=O)c3ccccc3)[C@]3(O)C[C@H](OC(=O)[C@H](O)[C@@H](NC(=O)c4ccccc4)c4ccccc4)C(C)=C1C3(C)C)[C@]1(OC(C)=O)CO[C@@H]1C[C@@H]2O [Paclitaxel]
Vorinostat = compound: O=C(CCCCCCC(=O)Nc1ccccc1)NO [Vorinostat]
Buparlisib/NVP-BKM120 = compound: Nc1cc(C(F)(F)F)c(-c2cc(N3CCOCC3)nc(N3CCOCC3)n2)cn1 [Buparlisib/NVP-BKM120]
Cabozantinib = compound: COc1cc2nccc(Oc3ccc(NC(=O)C4(C(=O)Nc5ccc(F)cc5)CC4)cc3)c2cc1OC [Cabozantinib]
[1] = compound: CCN1CCN(Cc2ccc(Nc3ncc(F)c(-c4cc(F)c5nc(C)n(C(C)C)c5c4)n3)nc2)CC1
[2] = compound: CCc1cnn2c(NCc3ccc[n+]([O-])c3)cc(N3CCCC[C@H]3CCO)nc12
[3] = compound: CC(=O)c1c(C)c2cnc(Nc3ccc(N4CCNCC4)cn3)nc2n(C2CCCC2)c1=O; assay: GR value, 72 h; higher = faster growth (1 = untreated, <0 = killing);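 also: breast cancer and non-malignant breast epithelial lines, nine half-log doses, viable cells counted by Hoechst and LIVE/DEAD dye imaging versus time-zero plates and DMSO controls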
[4] = compound: CCN1CCN(Cc2ccc(Nc3ncc(F)c(-c4cc(F)c5nc(C)n(C(C)C)c5c4)n3)nc2)CC1; assay: as above
[5] = compound: CCc1cnn2c(NCc3ccc[n+]([O-])c3)cc(N3CCCC[C@H]3CCO)nc12; assay: as above
SHP099 = compound: CC1(CCN(CC1)C2=CN=C(C(=N2)N)C3=C(C(=CC=C3)Cl)Cl)N [SHP099]
AZD5363 = compound: NC1(C(=O)N[C@@H](CCO)c2ccc(Cl)cc2)CCN(c2nc[nH]c3nccc2-3)CC1 [AZD5363]
BSJ-03-123 = compound: CC(=O)c1c(C)c2cnc(Nc3ccc(N4CCN(CCOCCOCCOCCNC(=O)COc5cccc6c5C(=O)N(C5CCC(=O)NC5=O)C6=O)CC4)cn3)nc2n(C2CCCC2)c1=O [BSJ-03-123]
YKL-5-124 = compound: C=CC(=O)Nc1ccc(C(=O)Nc2[nH]nc3c2CN(C(=O)N[C@H](CN(C)C)c2ccccc2)C3(C)C)cc1 [YKL-5-124]; assay: GR value, 72 h; higher = faster growth (1 = untreated, <0 = killing);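 also: breast cancer and non-malignant breast epithelial lines, nine half-log doses, viable cells counted by Hoechst and LIVE/DEAD dye imaging versus time-zero plates and DMSO controls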
THZ1 = compound: CN(C)C/C=C/C(=O)Nc1ccc(C(=O)Nc2cccc(Nc3ncc(Cl)c(-c4c[nH]c5ccccc45)n3)c2)cc1 [THZ1]; assay: as above
Flavopiridol = compound: CN1CC[C@H](c2c(O)cc(O)c3c(=O)cc(-c4ccccc4Cl)oc23)[C@H](O)C1 [Flavopiridol]; assay: as above
THZ531 = compound: CN(C)C/C=C/C(=O)Nc1ccc(C(=O)N2CCC[C@@H](Nc3ncc(Cl)c(-c4c[nH]c5ccccc45)n3)C2)cc1 [THZ531]; assay: as above
LEE011/Ribociclib = compound: CN(C)C(=O)c1cc2cnc(Nc3ccc(N4CCNCC4)cn3)nc2n1C1CCCC1 [LEE011/Ribociclib]; assay: as above
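For GR50, 72 h in this document: breast cancer and non-malignant breast epithelial cell lines, Deep Dye Drop or Dye Drop imaging, nine half-log doses, GR normalized to time-zero plates and DMSO-only controls.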

Cell Line: HCC1428
- GR50, 72 h (Paclitaxel): 0.00862 µM
- GR50, 72 h (Vorinostat): 0.835 µM
- GR50, 72 h (Buparlisib/NVP-BKM120): 0.692 µM
- GR50, 72 h (Cabozantinib): > 10 µM
- GR50, 72 h [1]: 0.00979 µM
- GR50, 72 h [2]: 0.0171 µM
- GR value ([3]; 0.0003162 µM): 1.05 GR
- GR value ([3]; 0.001 µM): 1.07 GR
- GR value ([3]; 0.003162 µM): 1.14 GR
- GR value ([3]; 0.01 µM): 0.874 GR
- GR value ([3]; 0.03162 µM): 0.729 GR
- GR value ([3]; 0.1 µM): 0.434 GR
- GR value ([3]; 0.3162 µM): 0.313 GR
- GR value ([3]; 1 µM): 0.247 GR
- GR value ([3]; 3.162 µM): 0.268 GR
- GR value ([4]; 0.001 µM): 0.945 GR
- GR value ([4]; 0.003162 µM): 0.654 GR
- GR value ([4]; 0.01 µM): 0.515 GR
- GR value ([4]; 0.03162 µM): 0.31 GR
- GR value ([4]; 0.1 µM): 0.228 GR
- GR value ([4]; 0.3162 µM): 0.25 GR
- GR value ([4]; 1 µM): 0.234 GR
- GR value ([4]; 3.162 µM): 0.181 GR
- GR value ([4]; 10 µM): 0.0475 GR
- GR value ([5]; 0.0001 µM): 1.11 GR
- GR value ([5]; 0.0003162 µM): 1.09 GR
- GR value ([5]; 0.001 µM): 0.975 GR
- GR value ([5]; 0.003162 µM): 0.984 GR
- GR value ([5]; 0.01 µM): 0.871 GR
- GR value ([5]; 0.03162 µM): -0.205 GR
- GR value ([5]; 0.1 µM): -0.538 GR
- GR value ([5]; 0.3162 µM): -0.619 GR
- GR value ([5]; 1 µM): -0.67 GR

Cell Line: HCC1500
- GR50, 72 h (Paclitaxel): 0.00382 µM
- GR50, 72 h (Vorinostat): 0.96 µM
- GR50, 72 h (Buparlisib/NVP-BKM120): 0.211 µM
- GR50, 72 h (Cabozantinib): 4.67 µM
- GR50, 72 h [1]: 0.479 µM
- GR50, 72 h [2]: 0.0138 µM
- GR value ([3]; 0.0003162 µM): 1.03 GR
- GR value ([3]; 0.001 µM): 1.16 GR
- GR value ([3]; 0.003162 µM): 1.19 GR
- GR value ([3]; 0.01 µM): 1.11 GR
- GR value ([3]; 0.03162 µM): 0.838 GR
- GR value ([3]; 0.1 µM): 0.676 GR
- GR value ([3]; 0.3162 µM): 0.581 GR
- GR value ([3]; 1 µM): 0.709 GR
- GR value ([3]; 3.162 µM): 0.592 GR
- GR value ([4]; 0.001 µM): 1.1 GR
- GR value ([4]; 0.003162 µM): 0.961 GR
- GR value ([4]; 0.01 µM): 0.802 GR
- GR value ([4]; 0.03162 µM): 0.592 GR
- GR value ([4]; 0.1 µM): 0.533 GR
- GR value ([4]; 0.3162 µM): 0.701 GR
- GR value ([4]; 1 µM): 0.494 GR
- GR value ([4]; 3.162 µM): 0.395 GR
- GR value ([4]; 10 µM): 0.195 GR
- GR value ([5]; 0.0001 µM): 1.07 GR
- GR value ([5]; 0.0003162 µM): 0.975 GR
- GR value ([5]; 0.001 µM): 1.06 GR
- GR value ([5]; 0.003162 µM): 1.06 GR
- GR value ([5]; 0.01 µM): 0.674 GR
- GR value ([5]; 0.03162 µM): -0.172 GR
- GR value ([5]; 0.1 µM): -0.576 GR
- GR value ([5]; 0.3162 µM): -0.534 GR
- GR value ([5]; 1 µM): -0.601 GR

Cell Line: MCF10A (GM)
- GR50, 72 h (SHP099): > 10 µM
- GR50, 72 h (AZD5363): > 10 µM
- GR50, 72 h (BSJ-03-123): 2.21 µM
- GR value (YKL-5-124; 0.001 µM): 0.327 GR
- GR value (YKL-5-124; 0.003162 µM): 0.118 GR
- GR value (YKL-5-124; 0.01 µM): 0.0291 GR
- GR value (YKL-5-124; 0.03162 µM): 0.0039 GR
- GR value (YKL-5-124; 0.1 µM): 0.0039 GR
- GR value (YKL-5-124; 0.3162 µM): -0.0162 GR
- GR value (YKL-5-124; 1 µM): -0.0398 GR
- GR value (YKL-5-124; 3.162 µM): -0.0468 GR
- GR value (YKL-5-124; 10 µM): -0.141 GR
- GR value (THZ1; 0.0001 µM): 0.997 GR
- GR value (THZ1; 0.0003162 µM): 0.998 GR
- GR value (THZ1; 0.001 µM): 0.986 GR
- GR value (THZ1; 0.003162 µM): 0.993 GR
- GR value (THZ1; 0.01 µM): 0.898 GR
- GR value (THZ1; 0.03162 µM): 0.539 GR
- GR value (THZ1; 0.1 µM): 0.23 GR
- GR value (THZ1; 0.3162 µM): 0.0499 GR
- GR value (THZ1; 1 µM): -0.285 GR
- GR value (Flavopiridol; 0.0001 µM): 1 GR
- GR value (Flavopiridol; 0.0003162 µM): 1.01 GR
- GR value (Flavopiridol; 0.001 µM): 1.01 GR
- GR value (Flavopiridol; 0.003162 µM): 0.996 GR
- GR value (Flavopiridol; 0.01 µM): 0.962 GR
- GR value (Flavopiridol; 0.03162 µM): 0.842 GR
- GR value (Flavopiridol; 0.1 µM): 0.557 GR
- GR value (Flavopiridol; 0.3162 µM): -0.244 GR
- GR value (Flavopiridol; 1 µM): -0.319 GR
- GR value (THZ531; 0.0001 µM): 1 GR
- GR value (THZ531; 0.0003162 µM): 1 GR
- GR value (THZ531; 0.001 µM): 0.992 GR
- GR value (THZ531; 0.003162 µM): 0.983 GR
- GR value (THZ531; 0.01 µM): 0.997 GR
- GR value (THZ531; 0.03162 µM): 0.974 GR
- GR value (THZ531; 0.1 µM): 0.926 GR
- GR value (THZ531; 0.3162 µM): 0.707 GR
- GR value (THZ531; 1 µM): -0.276 GR
- GR value (LEE011/Ribociclib; 0.001 µM): 0.925 GR
- GR value (LEE011/Ribociclib; 0.003162 µM): 0.95 GR
- GR value (LEE011/Ribociclib; 0.01 µM): 0.906 GR
- GR value (LEE011/Ribociclib; 0.03162 µM): 0.892 GR
- GR value (LEE011/Ribociclib; 0.1 µM): 0.859 GR
- GR value (LEE011/Ribociclib; 0.3162 µM): 0.823 GR
- GR value (LEE011/Ribociclib; 1 µM): 0.808 GR
- GR value (LEE011/Ribociclib; 3.162 µM): 0.736 GR
- GR value (LEE011/Ribociclib; 10 µM): 0.525 GR
